US20070167499A1, “Biaryl linked hydroxamates: preparation and pharmaceutical applications” (A*BIO Pte Ltd., priority 2003, published 2007)

Experiments:
[1] = system: acetylated H3 in Colo205 cells; test: Histone H3 acetylation assay (western-blot); assay type: cell-based, human; parameters: key: “Active” means accumulation of acetylated histone was observed when compared with control (without compound); conditions: for Histone 3 acetylation: Colo205 cells, 0.1, 1, 5 and 10 μM, after 24 h
Description: (§1) Histone H3, H4 and H2A acetylation assay
A hallmark of histone deacetylase (HDAC) inhibition is the increase in the acetylation level of histones. Histone acetylation, including H3, H4 and H2A can be detected by immuno-blotting (western-blot). Colo205 cells, approximately 1.5×10^6 cells/10 cm dish, were seeded in the previously described medium, cultivated for 24 h and subsequently treated with HDAC inhibitory agents at 0.1, 1, 5 and 10 μM final concentration. […] The protein concentration was quantified using BCA method (Sigma Pte Ltd). The protein lysate was separated using 4-12% bis-tris SDS-PAGE gel (Invitrogen Pte Ltd) and was transferred onto PVDF membrane (BioRad Pte Ltd). The membrane was probed separately using primary antibody specific for acetylated H3, acetylated H4 or acetylated H2A (Upstate Pte Ltd). The detection antibody, goat anti rabbit antibody conjugated with horse radish peroxidase (HRP) was used according to the manufacturing instruction (Pierce Pte Ltd). After removing the detection antibody from the membrane, an enhanced chemiluminescent substrate for detection of HRP (Pierce Pte Ltd) was added onto the membrane. After removing the substrate, the membrane was exposed to an X-ray film (Kodak) for 1 sec-20 mins. The X-ray film was developed using the X-ray film processor. The density of each band observed on the developed film could be analysed using UVP Bioimaging software (UVP, Inc, Upland, Calif.). The values were then normalized against the density of actin in the corresponding samples to obtain the expression of the protein.

MDA-MB435 = test: Cell-based proliferation assay for determination of GI50 values, breast cancer cell line; conditions: Homo sapiens, MDA-MB-435; 96 h treatment, cyquant cell proliferation assay; read-out: Cellular activities GI50, MDA-MB435
Description: (§2) Cell-based Proliferation assay for determination of GI50 values
(§3) Three different cancer cell lines were obtained from ATCC: Human colon cancer cell line (Colo205), human breast cancer cell lines (MDA-MB435), and human lung cancer cell line (NCl-H522). Colo205 cells and NCl-H522 were cultivated in RPMI 1640 containing 2 mM
(§4) L-Glutamine, 5% FBS, 1.0 mM Na Pyruvate. MDA-MB435 cells were cultivated in DMEM containing 2 mM L-Glutamine, 5% FBS. Colo205 cells were seeded in 96-wells plate at 2000 and 5000 cells per well respectively. MDA-MB435 and NCl-H522 cells were seeded in 96-wells plate at 6000 cells per well. The plates were incubated at 37° C., 5% CO2, for 24 h. Cells were treated with compounds at various concentrations for 96 h. Cell growth was then monitored using cyquant cell proliferation assay (Invitrogen Pte Ltd). Dose response curves were plotted to determine GI50 values for the compounds using XL-fit (ID Business Solution, Emeryville, Calif.).

[2] = system: acetylated H4 in Colo205 cells; test: Histone H4 acetylation assay (western-blot); assay type: cell-based, human; parameters: key: “Active” means accumulation of acetylated histone was observed when compared with control (without compound); conditions: Colo205 cells, 0.1, 1, 5 and 10 μM, after 24 h
Description: as §1
A hallmark of histone deacetylase (HDAC) inhibition is the increase in the acetylation level of histones. Histone acetylation, including H3, H4 and H2A can be detected by immuno-blotting (western-blot). Colo205 cells, approximately 1.5×10^6 cells/10 cm dish, were seeded in the previously described medium, cultivated for 24 h and subsequently treated with HDAC inhibitory agents at 0.1, 1, 5 and 10 μM final concentration. After 24 h, cells were harvested and lysed according to the instruction from Sigma Mammalian Cell Lysis Kit. The protein concentration was quantified using BCA method (Sigma Pte Ltd). The protein lysate was separated using 4-12% bis-tris SDS-PAGE gel (Invitrogen Pte Ltd) and was transferred onto PVDF membrane (BioRad Pte Ltd). The membrane was probed separately using primary antibody specific for acetylated H3, acetylated H4 or acetylated H2A (Upstate Pte Ltd). The detection antibody, goat anti rabbit antibody conjugated with horse radish peroxidase (HRP) was used according to the manufacturing instruction (Pierce Pte Ltd). After removing the detection antibody from the membrane, an enhanced chemiluminescent substrate for detection of HRP (Pierce Pte Ltd) was added onto the membrane. After removing the substrate, the membrane was exposed to an X-ray film (Kodak) for 1 sec-20 mins. The X-ray film was developed using the X-ray film processor. The density of each band observed on the developed film could be analysed using UVP Bioimaging software (UVP, Inc, Upland, Calif.). The values were then normalized against the density of actin in the corresponding samples to obtain the expression of the protein.

Colo205 = test: Cell-based proliferation assay for determination of GI50 values, colon cancer cell line; conditions: Homo sapiens, COLO 205; 96 h treatment, cyquant cell proliferation assay; read-out: Cellular activities GI50, Colo205
Description: as §2, §3, §4

| SMILES | Histone 3 acetylation [1] | GI50 (MDA-MB435) [µM] | Histone 4 acetylation [2] | GI50 (Colo205) [µM] | Histone 3 acetylation (after 48 hrs) ([1]; Colo205 cells, after 48 hrs) |
| --- | --- | --- | --- | --- | --- |
| Nc1nc(-c2ccc(/C=C/C(=O)NO)cc2)cs1 [Example 23, 3-[4-(2-Amino-thiazol-4-yl)-phenyl]-N-hydroxy-acrylamide] | Active | 4.46 | Active | 7.72 | – |
| O=C(Cc1ccc(-c2csc(NC(=O)Cc3ccccc3)n2)s1)NO [Example 1, N-Hydroxy-2-[5-(2-phenylacetylamino-thiazol-4-yl)-thiophen-2-yl]-acetamide] | – | – | – | 12.1 | Active (after 48 hrs) |
| O=C(NO)c1ccc(-c2ccc(CNCCc3ccccc3)cc2)s1 [Example 26, 5-[4-(Phenethylamino-methyl)-phenyl]-thiophene-2-carboxylic acid hydroxyamide] | Active | 2.66 | Active | 1.86 | – |
| O=C(NO)c1ccc(-c2ccc(CNCCc3ccccn3)cc2)s1 [Example 27] | Active | 1.49 | Active | 2.39 | – |
